Measured values from patent US10377742B2, “AMPK-activating heterocyclic compounds and methods for using the same” (Rigel Pharmaceuticals, Inc., priority 2010, dated 2019).

Target: AMPK
Assay: AMPK activation, enzyme-linked immunosorbent assay
Assay type: biochemical
Protocol: Compounds were assayed for their ability to activate AMPK using an enzyme-linked immunosorbent assay. Reagents and procedures for measuring AMPK activation are well known and kits for AMPK activation assays are commercially available.

SMILES | EC50
COc1ccc(C(=O)C2CCN(C(=O)c3ccc(C(=O)N[C@H]4CC[C@@H](Oc5cc(F)cc(F)c5)CC4)nc3)CC2)cc1 [Compound 300, N-((cis)-4-(3,5-difluorophenoxy)cyclohexyl)-5-(4-(4-methoxybenzoyl)piperidine-1-carbonyl)picolinamide] | < 500 nM
COc1ccc(C(=O)C2CCN(C(=O)c3ccc(C(=O)N[C@@H]4CCN(Cc5ccc(OC(F)(F)F)cc5)C[C@H]4F)cn3)CC2)cc1 (relative stereo) [Compound 350, N-((trans)-3-fluoro-1-(4-(trifluoromethoxy)benzyl)piperidin-4-yl)-6-(4-(4-methoxybenzoyl)piperidine-1-carbonyl)nicotinamide] | < 500 nM
N#Cc1ccc(O[C@H]2CC[C@@H](NC(=O)c3ccc(C(=O)N4CCC(Oc5cccc(NC(=O)C6CC6)c5)CC4)nc3)CC2)cc1 [Compound 434, N-((cis)-4-(4-cyanophenoxy)cyclohexyl)-6-(4-(3-(cyclopropanecarboxamido)phenoxy)piperidine-1-carbonyl)nicotinamide] | < 500 nM
COc1ccc(C(=O)C2CCN(C(=O)c3ccc(C(=O)N[C@@H]4CCN(Cc5ccc(C#N)c(F)c5)C[C@H]4F)cn3)CC2)cc1 (relative stereo) [Compound 354, N-((trans)-1-(4-cyano-3-fluorobenzyl)-3-fluoropiperidin-4-yl)-6-(4-(4-methoxybenzoyl)piperidine-1-carbonyl)nicotinamide] | < 500 nM
COc1ccc(C(=O)C2CCN(C(=O)c3ccc(C(=O)N[C@H]4CC[C@@H](Oc5ccc(F)cc5)CC4)nc3)CC2)cc1 [Compound 311, N-((cis)-4-(4-fluorophenoxy)cyclohexyl)-5-(4-(4-methoxybenzoyl)piperidine-1-carbonyl)picolinamide] | < 500 nM
N#Cc1ccc(OC2CCN(C(=O)c3ccc(C(=O)N[C@H]4CC[C@@H](Oc5ccc(C#N)cc5)CC4)cn3)CC2)cc1 [Compound 321, N-((cis)-4-(4-cyanophenoxy)cyclohexyl)-6-(4-(4-cyanophenoxy)piperidine-1-carbonyl)nicotinamide] | < 500 nM
COc1ccc(C(=O)C2CCN(C(=O)c3ccc(C(=O)N[C@@H]4CCN(Cc5ccc(OC(C)C)cc5)C[C@H]4F)cn3)CC2)cc1 (relative stereo) [Compound 353, N-((trans)-3-fluoro-1-(4-isopropoxybenzyl)piperidin-4-yl)-6-(4-(4-methoxybenzoyl)piperidine-1-carbonyl)nicotinamide] | < 500 nM
O=C(N[C@H]1CC[C@@H](Oc2ccc(F)cc2)CC1)c1ccc(C(=O)N2CCC(Oc3ccc(F)cc3)CC2)cn1 [Compound 312, N-((cis)-4-(4-fluorophenoxy)cyclohexyl)-5-(4-(4-fluorophenoxy)piperidine-1-carbonyl)picolinamide] | < 500 nM
CC(=O)c1ccc(OC2CCN(C(=O)c3ccc(C(=O)NC4CCC(Oc5ccc(C#N)cc5)CC4)cn3)CC2)cc1 (stereo not shown) [Compound 402, 6-(4-(4-acetylphenoxy)piperidine-1-carbonyl)-N-(4-(4-cyanophenoxy)cyclohexyl)nicotinamide] | < 500 nM
O=C(N[C@H]1CC[C@@H](Oc2ccc(F)cc2)CC1)c1ccc(C(=O)N2CCC(C(=O)c3ccc(F)cc3)CC2)cn1 [Compound 304, 5-(4-(4-fluorobenzoyl)piperidine-1-carbonyl)-N-((cis)-4-(4-fluorophenoxy)cyclohexyl)picolinamide] | < 500 nM
COc1ccc(C(=O)C2CCN(C(=O)c3ccc(C(=O)N[C@H]4CC[C@@H](Oc5ccc(F)cc5)CC4)cn3)CC2)cc1 [Compound 316, N-((cis)-4-(4-fluorophenoxy)cyclohexyl)-6-(4-(4-methoxybenzoyl)piperidine-1-carbonyl)nicotinamide] | < 500 nM
COc1ccc(C(=O)C2CCN(C(=O)c3ccc(C(=O)N[C@@H]4CCN(Cc5csc(C)n5)C[C@@H]4F)cn3)CC2)cc1 [Compound 427, N-((3S,4R)-3-fluoro-1-((2-methylthiazol-4-yl)methyl)piperidin-4-yl)-6-(4-(4-methoxybenzoyl)piperidine-1-carbonyl)nicotinamide] | 1000 to 5000 nM
COc1ccc(C(=O)C2CCN(C(=O)c3ccc(C(=O)N[C@@H]4CCN(Cc5cc(C)on5)C[C@@H]4F)cn3)CC2)cc1 [Compound 426, N-((3S,4R)-3-fluoro-1-((5-methylisoxazol-3-yl)methyl)piperidin-4-yl)-6-(4-(4-methoxybenzoyl)piperidine-1-carbonyl)nicotinamide] | < 500 nM
N#Cc1ccc(O[C@H]2CC[C@@H](NC(=O)c3ccc(C(=O)N4CCC(C(=O)c5ccc(N6CCCC6)cc5)CC4)nc3)CC2)cc1 [Compound 442, N-((cis)-4-(4-cyanophenoxy)cyclohexyl)-6-(4-(4-(pyrrolidin-1-yl)benzoyl)piperidine-1-carbonyl)nicotinamide] | < 500 nM
N#Cc1ccc(O[C@H]2CC[C@@H](NC(=O)c3ccc(C(=O)N4CCC(Oc5ccc(C(F)(F)F)cc5)CC4)cn3)CC2)cc1F [Compound 199, N-((cis)-4-(4-cyano-3-fluorophenoxy)cyclohexyl)-5-(4-(4-(trifluoromethyl)phenoxy)piperidine-1-carbonyl)picolinamide] | < 500 nM

Second part, the compound after the results:

EC50 | SMILES
500 to 1000 nM | N#Cc1ccc(CN2CCC(NC(=O)c3ccc(Nc4ccc(Cc5ccccc5)cc4)cn3)CC2)cc1 [Compound 108, 5-(4-benzylphenylamino)-N-(1-(4-cyanobenzyl)piperidin-4-yl)picolinamide]
< 500 nM | N#Cc1ccc(O[C@H]2CC[C@@H](NC(=O)c3ccc(C(=O)N4CCN(Cc5ccc(F)cc5)CC4)nc3)CC2)cc1 [Compound 332, N-((cis)-4-(4-cyanophenoxy)cyclohexyl)-6-(4-(4-fluorobenzyl)piperazine-1-carbonyl)nicotinamide]
< 500 nM | N#Cc1ccc(CN2CCC(NC(=O)c3ccc(C(=O)N4CCC(Cc5ccccc5)CC4)cn3)CC2)cc1 [Compound 124, 5-(4-benzylpiperidine-1-carbonyl)-N-(1-(4-cyanobenzyl)piperidin-4-yl)picolinamide]
< 500 nM | N#Cc1ccc(OC2CCN(C(=O)c3ccc(C(=O)N[C@H]4CC[C@@H](Oc5ccc(F)cc5)CC4)nc3)CC2)cc1 [Compound 303, 5-(4-(4-cyanophenoxy)piperidine-1-carbonyl)-N-((cis)-4-(4-fluorophenoxy)cyclohexyl)picolinamide]
< 500 nM | N#Cc1ccc(CN2CC[C@@H](NC(=O)c3ccc(C(=O)N4CCC(Oc5ccc(S(=O)(=O)C(F)(F)F)cc5)CC4)nc3)C(F)C2)cc1 (stereo in doubt) [Compound 451, N-((3S,4R)-1-(4-cyanobenzyl)-3-fluoropiperidin-4-yl)-6-(4-(4-(trifluoromethylsulfonyl)phenoxy)piperidine-1-carbonyl)nicotinamide]
1000 to 5000 nM | CS(=O)(=O)c1ccc(N2CCC(NC(=O)c3ccc(C(=O)N4CCN(Cc5ccc(F)cc5)CC4)nc3)CC2)cc1 [Compound 421, 6-(4-(4-fluorobenzyl)piperazine-1-carbonyl)-N-(1-(4-(methylsulfonyl)phenyl)piperidin-4-yl)nicotinamide]
< 500 nM | N#Cc1ccc(CN2CCC(NC(=O)c3ccc(C(=O)N4CCC(Oc5ccc(C#N)cc5)CC4)nn3)CC2)cc1 [Compound 388, N-(1-(4-cyanobenzyl)piperidin-4-yl)-6-(4-(4-cyanophenoxy)piperidine-1-carbonyl)pyridazine-3-carboxamide]
< 500 nM | COc1ccc(C(=O)C2CCN(C(=O)c3ccc(C(=O)N[C@@H]4CCN(Cc5ccc(C#N)cc5)C[C@@H]4F)cn3)CC2)cc1 (relative stereo) [Compound 454, N-((cis)-1-(4-cyanobenzyl)-3-fluoropiperidin-4-yl)-6-(4-(4-methoxybenzoyl)piperidine-1-carbonyl)nicotinamide]
< 500 nM | N#Cc1ccc(CN2CCc3ccc(NC(=O)c4ccc(C(=O)N5CCN(Cc6ccc(F)cc6)CC5)cn4)cc3C2)cc1 [Compound 132, N-(2-(4-cyanobenzyl)-1,2,3,4-tetrahydroisoquinolin-7-yl)-5-(4-(4-fluorobenzyl)piperazine-1-carbonyl)picolinamide]
< 500 nM | N#Cc1ccc(OC2CCN(C(=O)c3ccc(C(=O)N[C@H]4CC[C@@H](Oc5ccc(F)cc5)CC4)cn3)CC2)cc1 [Compound 324, 6-(4-(4-cyanophenoxy)piperidine-1-carbonyl)-N-((cis)-4-(4-fluorophenoxy)cyclohexyl)nicotinamide]
